Assay results published in US12472193B2, “Methods and compositions for treating and preventing respiratory related diseases and conditions with xylitol-headgroup lipid analogs” (National Jewish Health, priority 2017, dated 2025).
“Also recorded” adds a separate entry of the source.

Tests used:
[1] = target: T1, TLR 2/1 (Mus musculus, UniProt Q9EPQ1+Q9QUN7); test: Pam3Cys-induced TNFα release by RAW264.7 cells (TLR 2/1 antagonism); type: cell-based; details: for suppression of TLR 2/1 activation (TNFα release): Pam3Cys, 4 hours; for TLR2/1 antagonist activity: reduction in cytokine secretion vs activating TLR ligand alone
T1 construct: endogenous in cells; host or cells: RAW264.7 (ATCC)
Procedure: The mouse macrophage cell line, RAW264.7, was obtained from ATCC and maintained in DMEM, supplemented with 10% bovine growth serum and 1× penicillin streptomycin. Cells were maintained at 37° C. with 5% carbon dioxide: 95% air atmosphere within the incubator. Experiments were completed in a 96-well plate where cells were seated at a density of 1×10^5 cells per well, 24 prior to stimulation with TLR agonists and antagonists. Lipids were dried under a stream of nitrogen, hydrated with phosphate-buffered saline (PBS) at 37° C. for one hour, followed by water bath sonication to create liposomes. Each condition for cell stimulation and antagonism was prepared in DMEM in a separate tube and consisted of: control, TLR agonist, TLR agonist+lipid, and lipid alone. 100 μL aliquots of medium+agonists+antagonists were added to each well and incubated at 37° C. for 4 hours. Subsequently, the media were collected, diluted and an enzyme-linked immunosorbent assay (ELISA) was performed to quantify TNFα release by cells.
The ability of xylitol lipid analogs to suppress the activation of TLR 2 heterodimers was assessed. Pam3Cys was used to selectively stimulate TLR 2/1 signaling in RAW264.7 cells and MALP-2 was used as a TLR 2/6 selective agonist also in RAW264.7 cells. RAW264.7 cells were stimulated with Pam3Cys in the absence, or presence of PX lipids for 4 hours. Following incubation, media were collected, diluted and analyzed for TNFα release as a consequence of TLR activation. Results for analog activity against TLR 2/1 activation was assessed at two concentrations of phospholipid and are summarized in FIGS. 4A and 4B.
Initially, activity of xylitol lipid analogs was assessed at 100 μg/mL and it was unclear whether there was a real antagonist effect especially when compared to POPG. Experiments were repeated with a 200 μg/mL concentration of lipid to determine the ability of PX lipids to suppress TLR 2/1 activation in the presence of Pam3Cys. […] DPPX could have an effect on TLR 2/1 signaling at high concentrations.

[2] = test system: RSV; test: Western blot analysis of phospholipid interference with RSV binding to HEp2 cells; type: cell-based, human RSV A2 strain; details: 50 μg/mL lipid, MOI 2.5, 2 hr
Procedure: HEp2 cells were plated in a 48-well plate at a density of 1×10^5 per well, 48-hours prior to performing binding studies. A multiplicity of infection (MOI) of 2.5 was used and conditions of a control with no RSV, RSV alone and RSV plus 50 μg/mL of selected lipids were added to cells for a 2-hour incubation at 18° C. This lower temperature was used so that RSV would adsorb to the cell surface with minimal endocytosis. After binding, cells were washed 4 times with cold PBS to remove any unattached virus. 80 μL of SDS-PAGE loading buffer (sample buffer+protease inhibitor+DTT) was added to each well and the plate was set in boiling water for 1 minute to lyse cells and solubilize proteins. Cell lysates were recovered by scraping and pipteing and stored at −20° C. Subsequently, thawed lysates were boiled for 5 min, and proteins were resolved on 8-16% gradient Tris-SDS-polyacrylamide gels. The separated proteins were transferred to nitrocellulose membranes and subsequently incubated in blocking buffer containing 20 mM Tris-HCl buffer (pH 7.6), 137 mM NaCl, 0.1% Tween 20, and 5% nonfat milk for 1 hour. After blocking, primary RSV antibody conjugated to HRP was diluted 1:500 in blocking solution, added to the membrane and incubated overnight at 4° C. The membranes were washed with TBS containing 0.1% Tween for 30 min, replacing the buffer every 10 min. The immunoreactive protein was detected using coumaric acid and luminol reagents and exposed to film. Developed films were scanned and Image J software was used for protein quantification. Beta-Actin was used a control for amount of protein loaded.
Because binding of lipid to RSV in a biochemical assay was not a good predictor of antiviral activity, PX lipids were tested for activity preventing viral attachment to the surface of cells. HEp2 cells were plated in a 48-well plate at a density of 1×10^5 per well, 48 hours prior to viral adsorption. RSV was added to cells at multiplicity of infection (MOI) 2.5 in the absence or presence of 50 μg/mL of select xylitol lipids. […] The moderately effective antiviral, DPPX was selected and the ineffective antiviral, 14:0 DEPX was selected. Viral adsorption to cells was performed at 18° C. to minimize endocytosis. RSV was incubated with HEp2 cells for 2 hours, rotating the plate every 30 minutes. Cells were washed with cold PBS to remove unbound virus and cells were lysed and collected. Cell lysates were electrophoresed on an SDS-PAGE gel, and transferred to nitrocellulose membrane. The RSV G protein was detected with antibody and Beta-actin was used as a protein loading control. The results are summarized and quantified in FIGS. 9A and 9B. In more detail, monolayers of HEp2 cells were incubated with RSV at a stoichiometry of 2.5 infectious particles/cell, at 0° C., to prevent endocytosis of virions. Following a 2 hr incubation the monolayers were washed three times with cold saline to remove unbound virus, and then the cells were harvested in a denaturing solution. The cell extracts were subjected to electrophoresis under reducing and denaturing conditions and the separated proteins were transferred to nitrocellulose. Viral proteins were detected by immunoblotting with polyclonal anti-RSV antibody and enhanced chemiluminescence. The immunoreactive bands were normalized using actin immunoblots. The immunoreactive viral proteins were quantified using Image J software. […] In contrast, POPG (PG) inhibits viral attachment by ˜85%, and the xylitol phospholipids 14:0 DEPX, POPX, 16:1 DPPX AND 18:1 DEPX inhibit viral attachment in the range of 80-90%.

T1 sequence (Q9QUN7 25-784): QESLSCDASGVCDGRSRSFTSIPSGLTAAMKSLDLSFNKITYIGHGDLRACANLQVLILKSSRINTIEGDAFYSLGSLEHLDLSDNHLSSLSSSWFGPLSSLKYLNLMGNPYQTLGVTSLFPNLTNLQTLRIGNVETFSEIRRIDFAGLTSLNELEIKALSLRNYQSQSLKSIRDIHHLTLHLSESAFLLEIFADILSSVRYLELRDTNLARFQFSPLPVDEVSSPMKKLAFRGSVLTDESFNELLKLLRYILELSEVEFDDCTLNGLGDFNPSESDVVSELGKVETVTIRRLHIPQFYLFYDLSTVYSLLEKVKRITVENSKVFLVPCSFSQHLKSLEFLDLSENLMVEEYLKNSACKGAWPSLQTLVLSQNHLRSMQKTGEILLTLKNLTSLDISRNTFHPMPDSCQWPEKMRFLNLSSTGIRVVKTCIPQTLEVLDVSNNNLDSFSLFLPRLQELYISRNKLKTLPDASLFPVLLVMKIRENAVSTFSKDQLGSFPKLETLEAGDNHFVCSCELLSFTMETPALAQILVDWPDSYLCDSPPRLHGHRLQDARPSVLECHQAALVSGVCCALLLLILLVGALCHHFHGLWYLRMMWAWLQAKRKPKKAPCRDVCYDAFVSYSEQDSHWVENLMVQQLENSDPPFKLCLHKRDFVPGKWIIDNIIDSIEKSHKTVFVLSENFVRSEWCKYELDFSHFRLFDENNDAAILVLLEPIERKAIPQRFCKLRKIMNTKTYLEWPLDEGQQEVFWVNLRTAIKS
T1 sequence (Q9EPQ1 25-795 limits assumed): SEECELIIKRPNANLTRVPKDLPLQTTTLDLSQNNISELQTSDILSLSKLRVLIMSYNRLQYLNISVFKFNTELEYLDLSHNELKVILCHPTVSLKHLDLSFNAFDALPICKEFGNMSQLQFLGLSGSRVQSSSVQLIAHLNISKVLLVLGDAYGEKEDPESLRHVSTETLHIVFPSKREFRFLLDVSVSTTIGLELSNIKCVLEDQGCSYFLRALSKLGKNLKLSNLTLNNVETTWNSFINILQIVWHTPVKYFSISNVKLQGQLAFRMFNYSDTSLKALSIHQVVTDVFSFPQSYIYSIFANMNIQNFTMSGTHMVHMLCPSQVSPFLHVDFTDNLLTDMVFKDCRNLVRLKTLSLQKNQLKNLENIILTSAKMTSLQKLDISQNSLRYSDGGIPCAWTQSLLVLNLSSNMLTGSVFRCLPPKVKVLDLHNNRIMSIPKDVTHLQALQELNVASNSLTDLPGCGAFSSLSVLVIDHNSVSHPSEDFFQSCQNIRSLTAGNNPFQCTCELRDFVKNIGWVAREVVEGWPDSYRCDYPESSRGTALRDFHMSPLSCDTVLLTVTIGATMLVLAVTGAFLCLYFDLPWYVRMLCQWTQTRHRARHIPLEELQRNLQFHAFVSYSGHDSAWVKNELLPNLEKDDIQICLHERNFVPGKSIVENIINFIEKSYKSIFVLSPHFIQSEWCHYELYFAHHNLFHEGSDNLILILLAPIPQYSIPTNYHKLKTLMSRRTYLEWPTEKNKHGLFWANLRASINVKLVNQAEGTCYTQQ

Row | Compound | suppression of TLR 2/1 activation (TNFα release) ([1]; 100 μg/mL lipid) | suppression of TLR 2/1 activation (TNFα release) ([1]; 200 μg/mL lipid) | inhibition of RSV attachment to HEp2 cells [2] | inhibition of viral attachment to HEp2 cells [2] [%] | TLR2/1 antagonist activity [1] | suppression of TLR 2/1 activation (TNFα release) ([1]; 200 μg/mL lipid, listed as 18:2 DEPX)
1 | CCCCCCCC/C=C\CCCCCCCC(=O)O[C@H](COC(=O)CCCCCCCCCCCCCCC)COP(=O)([O-])OCC[N+](C)(C)C [POPC, 1-palmitoyl-2-oleoyl-sn-glycero-3-phosphocholine, reference compound] | unaffected | unaffected | not inhibited | – | – | –
2 | CCCCCCCC/C=C\CCCCCCCC(=O)O[C@H](COC(=O)CCCCCCCCCCCCCCC)COP(=O)(O)OCC(O)CO (stereo partly drawn) [POPG, palmitoyl-oleoyl-phosphatidylglycerol, reference compound] | markedly inhibited | markedly inhibited | – | ~85 | – | –
3 | CCCCCCCCC=CCCCCCCCCOCC(COP(=O)(O)OCC(O)C(O)C(O)CO)OCCCCCCCCC=CCCCCCCCC (mixture of isomers) [18:1 DEPX, sn-1-O-octadecenyl, sn-2-O-octadecenyl sn-3 glycerol phosphoxylitol] | modest antagonists | inhibit TLR2/1 activation to almost the same extent as the bioactive lipid POPG; also recorded: strongly suppressed; also recorded: suppressed TLR 2/1 activation | inhibit attachment; also recorded: prevented RSV attachment to HEp2 cells | – | + (cutoff being greater than a 50% reduction in cytokine secretion compared to activating TLR ligand alone) | –
4 | CCCCCCCCCCCCCCCC(=O)OCC(COP(=O)(O)OCC(O)C(O)C(O)CO)OC(=O)CCCCCCCCCCCCCCC (stereo not drawn) [DPPX, sn-1-palmitoyl, sn-2-palmitoyl sn-3 glycerol phosphoxylitol] | – | weakly effective | not inhibited; also recorded: did not | – | – | –
5 | CCCCCCCC/C=C\CCCCCCCC(=O)O[C@H](COC(=O)CCCCCCCCCCCCCCC)COP(=O)(O)OCC(O)C(O)C(O)CO (stereo partly drawn) [POPX, sn-1-palmitoyl, sn-2-oleoyly sn-3 glycerol phosphoxylitol] | modest antagonists | inhibit TLR2/1 activation to almost the same extent as the bioactive lipid POPG; also recorded: strongly suppressed; also recorded: suppressed TLR 2/1 activation | prevented RSV attachment to HEp2 cells | – | + (cutoff being greater than a 50% reduction in cytokine secretion compared to activating TLR ligand alone) | –
6 | CCCCCCC=CCCCCCCCC(=O)OCC(COP(=O)(O)OCC(O)C(O)C(O)CO)OC(=O)CCCCCCCC=CCCCCCC (mixture of isomers) [16:1 DPPX, sn-1-palmitoleoyl, sn-2-palmitoleoyl sn-3 glycerol phosphoxylitol] | did not appear to suppress activation | inhibit TLR2/1 activation to almost the same extent as the bioactive lipid POPG; also recorded: strongly suppressed; also recorded: suppressed TLR 2/1 activation | prevented RSV attachment to HEp2 cells | – | + (cutoff being greater than a 50% reduction in cytokine secretion compared to activating TLR ligand alone) | –
7 | CCCCCCCCC=CCCCCCCCC(=O)OCC(COP(=O)(O)OCC(O)C(O)C(O)CO)OC(=O)CCCCCCCC=CCCCCCCCC (mixture of isomers) [DOPX, sn-1-oleoyl, sn-2-oleoyl sn-3 glycerol phosphoxylitol] | modest antagonists | inhibit TLR2/1 activation to almost the same extent as the bioactive lipid POPG; also recorded: strongly suppressed; also recorded: suppressed TLR 2/1 activation | inhibit attachment | – | + (cutoff being greater than a 50% reduction in cytokine secretion compared to activating TLR ligand alone) | –
8 | CCCCCCCCCCCCCC(=O)OC[C@H](COP(=O)(O)OCC(O)C(O)C(O)CO)OC(=O)CCCCCCCCCCCCC (mixture of isomers) [DMPX, sn-1-myristoyl, sn-2-myristoyl sn-3 glycerol phosphoxylitol] | ineffective at both concentrations | not effective antagonists | – | – | – | –
9 | CCCCCCCCCCCCCCOC[C@H](COP(=O)(O)OCC(O)C(O)C(O)CO)OCCCCCCCCCCCCCC (mixture of isomers) [14:0 DEPX, sn-1-O-myristyl, sn-2-O-myristyl sn-3 glycerol phosphoxylitol] | modest antagonists | inhibit TLR2/1 activation to almost the same extent as the bioactive lipid POPG; also recorded: strongly suppressed; also recorded: suppressed TLR 2/1 activation | appears to prevent viral binding to cells; also recorded: prevented RSV from binding to the cell surface | – | + (cutoff being greater than a 50% reduction in cytokine secretion compared to activating TLR ligand alone) | –
10 | CCCCCCCCCCCCCCCCCC(=O)OCC(COP(=O)(O)OCC(O)C(O)C(O)CO)OC(=O)CCCCCCCCCCCCCCCCC (stereo not drawn) [DSPX, sn-1-stearoyl, sn-2-stearoyl sn-3 glycerol phosphoxylitol] | ineffective at both concentrations | not effective antagonists | – | – | – | –
11 | CCCCCC=CCC=CCCCCCCCC(=O)OCC(COP(=O)(O)OCC(O)C(O)C(O)CO)OC(=O)CCCCCCCC=CCC=CCCCCC (mixture of isomers) [18:2 DLPX, sn-1-linoleoyl, sn-2-linoleoyl sn-3 glycerol phosphoxylitol] | modest antagonists | strongly suppressed; also recorded: suppressed TLR 2/1 activation | – | – | + (cutoff being greater than a 50% reduction in cytokine secretion compared to activating TLR ligand alone) | inhibit TLR2/1 activation to almost the same extent as the bioactive lipid POPG
